# Earlier results in US20170136076A1, “THERAPEUTIC COMPOSITIONS COMPRISING HERBAL EXTRACTS AND ESSENTIAL OILS FOR SMOKING AND VAPORIZATION” (NISARGA BIOTECH PRIVATE LIMITED, priority 2015, published 2017).
# Tests used:
# [1] = pure THC in the vaporizer
# [2] = after 90 minutes; condenses on the surface of the vaporizer or the balloon
compound,measurement,setting,value
"CCCCCc1cc(O)c2c(c1)OC(C)(C)[C@@H]1CCC(C)=C[C@@H]21 [THC, tetrahydrocannabinol]","degradation products (delta-8-THC, cannabinol, unknown compounds) detected by HPLC",[1],no degradation products
same,loss of THC from stored vapor,[2],exceed 50%
